# Measurements: US10758517B2, “mPGES-1 inhibitor for the treatment of osteoarthritis pain” (Glenmark Pharmaceuticals S.A., priority 2017, dated 2020)
# Where two headings read alike, the source gives them in different places.
# Experiments:
# [1] = Plasma pharmacokinetics after single oral doses (Example 1); format: in vivo, human; conditions: for dose proportionality of exposure: single oral doses
# Protocol: In Part 1a, single doses of Compound I of 10 mg (Group A), 30 mg (Group B), 100 mg (Group C), 250 mg (Group D), 500 mg (Group E) and 1000 mg (Group F) were administered after fasting. In each dose group, 6 subjects received Compound I and 2 subjects received placebo.
# In Part 2, a dose of 250 mg was administered after fasting. 6 subjects received Compound I and 2 subjects received placebo.
# Blood and urine samples for the analysis of plasma and urinary concentrations of Compound I.
# Summary statistics were presented for the PK, pharmacodynamic (PD) and safety data, as appropriate. PK parameters following single oral doses of Compound I were determined from the plasma concentrations of Compound I using non-compartmental procedures in WinNonlin Dose proportionality was assessed using a power model, with tmax analyzed using the Kruskal-Wallis test. The effect of food on PK was assessed at the 100 and 250 mg doses using a mixed effects model. The effect of age on PK was assessed for elderly (>65 years) versus non-elderly (<65 years) at the 250 mg dose level in Parts 1a and 2, using an analysis of variance (ANOVA) with age as a fixed effect. For PD analyses, percent decrease of ex vivo LPS-induced PGE2 release was calculated. For Part 3, urinary excretion of prostanoid metabolites was also evaluated. The data are presented as absolute, as well as creatinine normalized urinary biomarker amounts, along percent change from baseline over a definite time interval. The percent change from baseline in urinary biomarkers was assessed using an analysis of covariance (ANCOVA) model
# [2] = system: LPS-induced PGE2 release; test: Ex vivo LPS-induced PGE2 release in whole blood, multiple oral doses for 28 days (Example 2, Part 1); design: species or system human; conditions: for EAUC0-24 h, Difference in LS means (Compound I − placebo) / EAUC0-24 h, LS means / ETmax (time to reach maximum effect), Median / ETmax, median difference from placebo / Eavg0-24 h, Difference in LS means (Compound I − placebo) / Epeak, Difference in LS means (Compound I − placebo) / Emax at 25 mg / Emax at 75 mg / Emax at 130 mg / inhibition at 25 mg / inhibition at 75 mg / inhibition at 130 mg: healthy subjects; for Emax at 25 mg / Emax at 75 mg / Emax at 130 mg / inhibition at 25 mg / inhibition at 75 mg / inhibition at 130 mg: Homo sapiens, po; for Emax at 25 mg / Emax at 75 mg / Emax at 130 mg: read-out: Epeak (maximum effect), LS means; for inhibition at 25 mg / inhibition at 75 mg / inhibition at 130 mg: read-out: Eavg0-24 h (average PGE2 inhibition over 24 hours), LS means
# Protocol: Part 1 consisted of a MAD, double-blind, sequential-group study in healthy subjects. Twenty-four adult male and female subjects were recruited into 3 cohorts. Subjects were enrolled in a sequential manner in cohorts of 8, each randomized in a ratio of 6:2, to receive Compound I or placebo, respectively, for a duration of 28 days. Three dose levels of Compound I (25, 75 and 130 mg) were studied in Cohorts A, B and C, respectively. For each cohort in Part 1, the planned Compound I, qd dosing occurred in the fasted state in the morning on Days 1 to 28, both inclusive. Subjects in each cohort started dosing on the same day, with no less than 5 minutes dose interval between subjects on Day 1.
# Concentrations below the limit of quantification were treated as ½ the lower limit of quantification for subsequent calculations.
# Time points where unstimulated PGE2 levels were 3 times greater than the mean of unstimulated PGE2 and greater than or equal to half of the baseline for a particular subject were not included in the calculation of these parameters.
# Baseline is the mean of Day −1 and pre-dose LPS stimulated PGE2.
# Abbreviations: CI=confidence interval; EAUC0-24h=area under the effect-time curve from time zero to 24 hours postdose; Eavg0-24h=the average PGE2 inhibition over 24 hours; Epeak=maximum effect; ETmax=time to reach maximum effect; LS=least squares; N=number of subjects; PGE2=prostaglandin E2; qd=once daily.
# ^a Median, median difference from placebo and approximate 95% CI.
smiles,measurement,setting,value
"CC(C)(C)C(=O)NCc1ccc(Cl)c(-c2nn(-c3ccc(C(F)(F)F)cc3)c(=O)[nH]2)c1 [Compound I, N-(4-chloro-3-(5-oxo-1-(4-(trifluoromethyl)phenyl)-4,5-dihydro-1H-1,2,4-triazol-3-yl)benzyl)pivalamide]",dose proportionality of exposure,[1]; 10 to 250 mg dose range,Near proportional increases
same,pharmacokinetic differences in elderly subjects,"[1]; elderly subjects, single dose 250 mg",No notable pharmacokinetic differences
same,dose proportionality of exposure,[1]; higher doses (250 to 1000 mg),sub-proportional increases
same,half-life,"[1]; human, plasma, single oral doses 10 to 1000 mg, independent of dose, read-out: mean T1/2",41.7 to 54.5 h
same,Tmax,"[1]; human, plasma, single oral doses of 10 and 30 mg, read-out: median Tmax",2 h
same,"EAUC0-24 h, Difference in LS means (Compound I − placebo)","[2]; Day 1, 25 mg qd",1225 % · h
same,"EAUC0-24 h, LS means","[2]; Day 1, 25 mg qd",1562 % · h
same,"ETmax (time to reach maximum effect), Median","[2]; Day 1, 25 mg qd",6.00 h
same,"ETmax, median difference from placebo","[2]; Day 1, 25 mg qd",-6.00 h
same,"Eavg0-24 h, Difference in LS means (Compound I − placebo)","[2]; Day 1, 25 mg qd",51.6%
same,"Epeak, Difference in LS means (Compound I − placebo)","[2]; Day 1, 25 mg qd",35.0%
same,"EAUC0-24 h, Difference in LS means (Compound I − placebo)","[2]; Day 1, 75 mg qd",1218 % · h
same,"EAUC0-24 h, LS means","[2]; Day 1, 75 mg qd",1555 % · h
same,"ETmax (time to reach maximum effect), Median","[2]; Day 1, 75 mg qd",23.8 h
same,"ETmax, median difference from placebo","[2]; Day 1, 75 mg qd",5.77 h
same,"Eavg0-24 h, Difference in LS means (Compound I − placebo)","[2]; Day 1, 75 mg qd",51.2%
same,"Epeak, Difference in LS means (Compound I − placebo)","[2]; Day 1, 75 mg qd",26.7%
same,"EAUC0-24 h, Difference in LS means (Compound I − placebo)","[2]; Day 1, 130 mg qd",1032 % · h
same,"EAUC0-24 h, LS means","[2]; Day 1, 130 mg qd",1369 % · h
same,"ETmax (time to reach maximum effect), Median","[2]; Day 1, 130 mg qd",4.00 h
same,"ETmax, median difference from placebo","[2]; Day 1, 130 mg qd",-10.0 h
same,"Eavg0-24 h, Difference in LS means (Compound I − placebo)","[2]; Day 1, 130 mg qd",43.5%
same,"Epeak, Difference in LS means (Compound I − placebo)","[2]; Day 1, 130 mg qd",22.3%
same,"EAUC0-24 h, Difference in LS means (Compound I − placebo)","[2]; Day 10, 25 mg qd",1461 % · h
same,"EAUC0-24 h, LS means","[2]; Day 10, 25 mg qd",1443 % · h
same,"ETmax (time to reach maximum effect), Median","[2]; Day 10, 25 mg qd",5.00 h
same,"ETmax, median difference from placebo","[2]; Day 10, 25 mg qd",-7.00 h
same,"Eavg0-24 h, Difference in LS means (Compound I − placebo)","[2]; Day 10, 25 mg qd",61.3%
same,"Epeak, Difference in LS means (Compound I − placebo)","[2]; Day 10, 25 mg qd",45.0%
same,"EAUC0-24 h, Difference in LS means (Compound I − placebo)","[2]; Day 10, 75 mg qd",1560 % · h
same,"EAUC0-24 h, LS means","[2]; Day 10, 75 mg qd",1542 % · h
same,"ETmax (time to reach maximum effect), Median","[2]; Day 10, 75 mg qd",12.0 h
same,"ETmax, median difference from placebo","[2]; Day 10, 75 mg qd",-0.0333 h
same,"Eavg0-24 h, Difference in LS means (Compound I − placebo)","[2]; Day 10, 75 mg qd",65.4%
same,"Epeak, Difference in LS means (Compound I − placebo)","[2]; Day 10, 75 mg qd",42.7%
same,"EAUC0-24 h, Difference in LS means (Compound I − placebo)","[2]; Day 10, 130 mg qd",1392 % · h
same,"EAUC0-24 h, LS means","[2]; Day 10, 130 mg qd",1374 % · h
same,"ETmax (time to reach maximum effect), Median","[2]; Day 10, 130 mg qd",4.00 h
same,"ETmax, median difference from placebo","[2]; Day 10, 130 mg qd",-6.03 h
same,"Eavg0-24 h, Difference in LS means (Compound I − placebo)","[2]; Day 10, 130 mg qd",58.4%
same,"Epeak, Difference in LS means (Compound I − placebo)","[2]; Day 10, 130 mg qd",40.9%
same,"EAUC0-24 h, Difference in LS means (Compound I − placebo)","[2]; Day 28, 25 mg qd",1281 % · h
same,"EAUC0-24 h, LS means","[2]; Day 28, 25 mg qd",1621 % · h
same,"ETmax (time to reach maximum effect), Median","[2]; Day 28, 25 mg qd",2.00 h
same,"ETmax, median difference from placebo","[2]; Day 28, 25 mg qd",-6.00 h
same,"Eavg0-24 h, Difference in LS means (Compound I − placebo)","[2]; Day 28, 25 mg qd",53.4%
same,"Epeak, Difference in LS means (Compound I − placebo)","[2]; Day 28, 25 mg qd",18.0%
same,"EAUC0-24 h, Difference in LS means (Compound I − placebo)","[2]; Day 28, 75 mg qd",1356 % · h
same,"EAUC0-24 h, LS means","[2]; Day 28, 75 mg qd",1696 % · h
same,"ETmax (time to reach maximum effect), Median","[2]; Day 28, 75 mg qd",10.0 h
same,"ETmax, median difference from placebo","[2]; Day 28, 75 mg qd",0.0333 h
same,"Eavg0-24 h, Difference in LS means (Compound I − placebo)","[2]; Day 28, 75 mg qd",56.4%
same,"Epeak, Difference in LS means (Compound I − placebo)","[2]; Day 28, 75 mg qd",21.2%
same,"EAUC0-24 h, Difference in LS means (Compound I − placebo)","[2]; Day 28, 130 mg qd",1192 % · h
same,"EAUC0-24 h, LS means","[2]; Day 28, 130 mg qd",1531 % · h
same,"ETmax (time to reach maximum effect), Median","[2]; Day 28, 130 mg qd",12.0 h
same,"ETmax, median difference from placebo","[2]; Day 28, 130 mg qd",0.177 h
same,"Eavg0-24 h, Difference in LS means (Compound I − placebo)","[2]; Day 28, 130 mg qd",49.6%
same,"Epeak, Difference in LS means (Compound I − placebo)","[2]; Day 28, 130 mg qd",13.9%
same,Emax at 25 mg,"[2]; 24 h, Day 1, 25 mg qd",90.4%
same,Emax at 75 mg,"[2]; 24 h, Day 1, 75 mg qd",82.1%
same,Emax at 130 mg,"[2]; 24 h, Day 1, 130 mg qd",77.8%
same,Emax at 25 mg,"[2]; 240 h, Day 10, 25 mg qd",83.7%
same,Emax at 75 mg,"[2]; 240 h, Day 10, 75 mg qd",81.4%
same,Emax at 130 mg,"[2]; 240 h, Day 10, 130 mg qd",79.6%
same,Emax at 25 mg,"[2]; 672 h, Day 28, 25 mg qd",84.2%
same,Emax at 75 mg,"[2]; 672 h, Day 28, 75 mg qd",87.4%
same,Emax at 130 mg,"[2]; 672 h, Day 28, 130 mg qd",80.1%
same,inhibition at 25 mg,"[2]; Day 1, 25 mg qd",65.7%
same,inhibition at 75 mg,"[2]; Day 1, 75 mg qd",65.4%
same,inhibition at 130 mg,"[2]; Day 1, 130 mg qd",57.6%
same,inhibition at 25 mg,"[2]; Day 10, 25 mg qd",60.6%
same,inhibition at 75 mg,"[2]; Day 10, 75 mg qd",64.7%
same,inhibition at 130 mg,"[2]; Day 10, 130 mg qd",57.6%
same,inhibition at 25 mg,"[2]; Day 28, 25 mg qd",67.5%
same,inhibition at 75 mg,"[2]; Day 28, 75 mg qd",70.6%
same,inhibition at 130 mg,"[2]; Day 28, 130 mg qd",63.8%
same,inhibition of ex-vivo LPS-induced PGE2 release (in words),"[2]; multiple oral doses 25 mg to 130 mg qd, Days 1, 10 and 28",marked drug-related inhibition
same,time by which maximal inhibition was reached,"[2]; post-dose on Day 1, each dose level (first sampling occasion)",≤ 30 min
